What is called melting point is the temperature, or range, at which the solid turns liquid.

Consider `COc1cc(Nc2c(C#N)cnc3cc4c(cc23)ncn4CCN2CCOCC2)c(C)cc1Cl`, for which the melting point lay in the range of 246 to 248 °C.
The figure for `COC(=O)c1ccc(Oc2c(C)n(CC(=O)O)c3ccc(Cl)cc23)cc1` is 196 to 197 °C; for `COc1cc2c(N)nc(Cl)nc2c(OC)c1OC` it is 244 to 245 °C.
As for `CSc1noc(-c2ccc(OCCOc3ccc([N+](=O)[O-])cc3)cc2)c1C#N`, the melting point was 170 to 171 °C.
For `COc1ccc(CN(CCN(C)CCCNC(=O)NCCCOc2cccc(CN3CCCCC3)c2)c2ccccn2)cc1`, the melting point came to 120 °C.
`CCCCSc1c2c(=O)n(C)c(=O)n(CC(C)C)c2cn1Cc1cccc2ccccc12` came in with a melting point of 92 to 94 °C.
The figure for `CCCCC1(O)C2=NCC3(CCCCC3)CN2c2ccccc21` (stereo unspecified) is 192 to 195 °C; for `CCCCCCOc1ccc(CC(C)C(=O)Oc2ccc(-c3ccc(F)cc3)cc2)cc1` (stereo unspecified) it is 78.4 to 79.5 °C; for `CN1C[C@H](O)C[C@H]1C(N)=O` it is 138 to 140 °C.
For `O=c1[nH]c2cc(F)ccc2c(=O)n1-c1ccccc1`, the melting point was in the range of 304 to 306 °C.
The compound `COc1cc(C)nc(Nc2ccc(Cl)cc2)n1` showed a melting point of 101 to 103 °C.
In turn, `CCOC(=O)C(=O)Nc1sc(C(=O)OCC)c(CC)c1[N+](=O)[O-]` displayed a melting point of 70 to 73 °C.
For the compound `Fc1cccc(-c2ccc3nncn3n2)c1`, the melting point lay within 159 to 161 °C.
The figure for `NC(=O)c1sc2nccc(N3CCCN(c4ccc(C(F)(F)F)cc4)CC3)c2c1N` is 204 to 208 °C.
`Cc1ccc(NC(=O)NCC(=O)N(CC(=O)OC(C)(C)C)c2ccccc2C(=O)c2ccccc2)cc1`: the melting point was 182 to 183 °C.
As to `COc1cc2c(cc1O)CCN(C(=O)NCCN(C(C)C)C(C)C)C2c1ccccc1` (stereo unspecified), the melting point was 91 to 92 °C.
Regarding `S=C(N/N=C/c1cccnc1)Nc1ccccc1`, the melting point was in the range of 208 to 210 °C.
As to `CC(C)(C)OC(=O)N[C@H]1CCN(OCc2ccccc2)C1=O`, the melting point is 113 to 114 °C.
With `ClCc1ccc(CN=C(Nc2ccccc2-c2ccccc2)Nc2ccccc2-c2ccccc2)cc1` the figure was 87 to 91.5 °C.
Regarding `CCOC1(NC(=O)c2ccccc2)CC1`, the melting point was in the range of 108 to 109 °C.
The figure for `c1ccc(CNCCOc2ccc3ccccc3c2)cc1` is 94 °C; for `N#Cc1cccc(-c2cc(-c3ccc(C#N)cc3[N+](=O)[O-])no2)c1` it is 235 to 238 °C.
With `CCOC(=O)CSc1nc(Cl)cc(NCCc2ccc(Cl)cc2)n1`, the melting point was in the range of 68 to 70 °C.
As for `CC(C)(C)c1cccc2nc(C(F)(F)F)[nH]c12`, the melting point was 149 to 152 °C.
The figure for `CCn1c(=O)c(-c2c(Cl)cccc2Br)cc2cnc(Nc3ccccc3)nc21` is 210 to 214 °C; for `Cc1cc(C)c(O)c(-c2cc(C(C)C)ccc2C(C)C)c1` it is 179 °C.
In turn, `CCOC1CCC(=O)N1S(=O)(=O)c1ccc(N)cc1` (stereo unspecified) had a melting point of 185 to 186 °C.
On to `CCn1cc2c(C3CC3CNC(C)=O)cccc2n1` (stereo unspecified), for which the melting point was 155 to 159 °C.
Take `CN(c1cc(Cl)ccc1C(=O)O)S(C)(=O)=O`: the melting point fell in the range of 161 to 164 °C.
Turning to `CCOC(=O)CCCC1CCN(CCOC(c2ccccc2)c2ccc(Cl)cc2)CC1` (stereo unspecified), the melting point was in the range of 117 to 119 °C.
As to `[N-]=[N+]=NCc1cc(=O)c(OCc2ccccc2)cn1Cc1ccccc1`, the melting point is 120 °C.
`CCCOc1ccccc1CCCOc1ccc2c(c1)C=C(C(=O)O)CCS2(=O)=O` displayed a melting point of 153 to 157 °C.
In turn, `C=C(C)COc1ccc(OC)cc1-c1nc2ccccc2[nH]1` registered a melting point of 144 to 148 °C.
With `CC/C(=C(\c1ccc(/C=C/C(=O)O)cc1)c1ccc(OC(=O)CCC(F)(F)F)cc1)c1ccccc1` the figure was 162 to 163 °C; with `COCCc1c[nH]c(=O)[nH]c1=O`, 232 to 234 °C; with `COc1ccc(CCNC(=O)C(F)(F)F)cc1S(N)(=O)=O`, 165 to 166 °C.
Turning to `COCOc1ccc(C(=O)COc2cc(OCc3ccccc3)ccc2CO)c(OCc2ccccc2)c1`, the melting point lay in the range of 115 to 118 °C.
Regarding `CCCCCCCCCCCCCCOC(=O)CCC1(CO)CCC(=O)O1` (stereo unspecified), the melting point was found to be 59 °C.
Compound `CCOC(=O)C(CCC#N)(C(=O)OCC)c1ncc(C)cc1[N+](=O)[O-]` displayed a melting point of 48 to 49 °C.
The figure for `Nc1c(CC(=O)O)cccc1Oc1ccccc1F` is 122 to 123 °C; for `O=C(O)CCc1cccc(-c2nc(=O)c3ccc(Cl)cc3s2)n1` it is 224 to 225 °C; for `C1=CCC2=C(C1)CC1=C(CC=CC1)C2` it is 146 to 147 °C.
In the case of `O=C(Nc1cccc2c1C(=O)c1c-2n[nH]c1C1CCN(C(=O)Oc2ccccc2)CC1)NN1CCOCC1`, the melting point lay in the range of 250 to 252 °C.
With `CC(=O)Nc1ccc2c(c1)[C@@H](O)[C@H](Br)C(C)(C)O2` (relative stereo) the figure was 170 °C.
`CNc1cc(Oc2ccc(NC(=O)Nc3ccc(-c4ccncc4)c(C(F)(F)F)c3)cc2)ncn1` had a melting point of 127 to 130 °C.
Consider `O=c1cc(Oc2c(Cl)cccc2Cl)c2cc(OC(F)F)ccc2o1`, for which the melting point lay in the range of 145 to 148 °C.
For the compound `Cc1n[nH]cc1-c1cccc2c1nnn2-c1ccnc(NC2CCN(S(C)(=O)=O)CC2)n1`, the melting point fell in the range of 231 to 232 °C.
Compound `Fc1ccccc1-c1cc2ccccc2[nH]1` came in with a melting point of 97 to 98 °C.
`CC(C)(C)[Si](C)(C)Oc1cccc(C2(Br)C(=O)NC(=O)NC2=O)c1` registered a melting point of 170 to 172 °C.
As for `O=C(c1ccc(F)cc1)c1ccc2n1CCC2C(=O)O` (stereo unspecified), the melting point came out at 165 °C.
With `COc1cc2c(cc1Br)CC/C2=C\C#N` the figure was 180 to 182 °C; with `CCCCCCCNc1ccncc1`, 50 to 52 °C.
With `COC(=O)C(Cc1ccc(-c2nc3ccc(OC)cc3n2C)cc1)N=[N+]=[N-]` (stereo unspecified) the figure was 105 to 107 °C.
The figure for `CCOC(=O)C1=C(C)Nc2nc(N3CCOCC3)nc(N3CCOCC3)c2C1c1ccsc1` (stereo unspecified) is 208 °C.
For the compound `CN1CCN(C2=Nc3cc(F)ccc3N3CCc4cccc2c43)CC1`, the melting point was in the range of 151 to 153 °C.
In turn, `CCOC(=O)c1c(C)nc2c(c1Cl)c1ccccc1n2C` registered a melting point of 123 to 124 °C.
`O=C(C=C(O)c1cccs1)C1CCN(Cc2ccccc2)CC1` showed a melting point of 80 to 83 °C.
Compound `CC(C)(C1OCCO1)C(O)(COc1ccc(F)cc1)Cn1cncn1` (stereo unspecified) displayed a melting point of 102 to 104 °C.
In turn, `Cc1cc(CCCCCOc2c(C)cc(-c3noc(C)n3)cc2C)on1` had a melting point of 45 to 46 °C.
Take `C=C1c2ccccc2C2(CCN(C)CC2)c2cccc(O)c21`: the melting point fell in the range of 117 to 120 °C.
Regarding `BrCCCCCCCc1ccc(OCc2ccccc2)cc1`, the melting point is 32 to 34 °C.
In turn, `CCOC(=O)c1cnn(C)c1C(=O)Nc1ccn2nc(-c3cccnc3F)nc2c1` yielded a melting point of 249 to 251 °C.
As to `CCc1nc2c(N)nc3ccccc3c2s1`, the melting point is 170 to 172 °C.
Regarding `COc1ccc(Sc2ncc(Cl)cn2)cc1`, the melting point worked out at 75 °C.
In turn, `Cc1ccc(S(=O)(=O)N2CCCC2c2ccc(F)cc2)cc1Cl` (racemic) yielded a melting point of 134 °C.
Compound `O=[N+]([O-])c1cccc(OC2CCCCO2)c1O` (stereo unspecified) registered a melting point of 72 to 73 °C.
The figure for `O=C(c1ccc(F)cc1)C1CCN(CCCC2CCc3onc(-c4ccc(Cl)cc4)c3C2O)CC1` (stereo unspecified) is 152 to 155 °C; for `COCC1(C)CC(n2ccccc2=O)c2cc(C(N)=O)ccc2O1` (stereo unspecified) it is 177 to 179 °C; for `N=C(N)c1ccc2cc(OC(=O)CCCC3CCCCC3)ccc2c1` it is 189 to 193 °C.
As for `Clc1ccc(Br)c2nc(SCc3ccccc3)nn12`, the melting point was 122 to 124 °C.
Compound `Oc1ccc(Cc2ccccc2)c2cccnc12` returned a melting point of 112 to 113 °C.
`Cc1nnc(-c2ccc3occ(-c4ccc(C=O)c(F)c4)c3c2)o1`: the melting point lay within 207 to 208 °C.
As for `C(=Nc1ccc(-c2c[nH]cn2)cc1)Nc1ccccc1`, the melting point was 123 to 124 °C.
With `CCNc1ccc(Cl)cc1[N+](=O)[O-]` the figure was 90 to 91 °C; with `COC(=O)CC1Sc2sc(S(N)(=O)=O)cc2NC1=O` (stereo unspecified), 195 to 197 °C; with `COc1ccc(N2CCN(c3c(C)c(C)c4c(c3C)C(c3ccccc3)C(C)(C)O4)CC2)cc1` (stereo unspecified), 126 to 128 °C.
The compound `COC(=O)c1c2c(c3cc(OC)c(OC)c(OC)c3c1-c1cc(OC)c(OC)c(OC)c1)OCOC2=O` showed a melting point of 165 to 167 °C.
Take `CCOCS(=O)(=O)c1ccc(C(CC2CCCC2)C(=O)Nc2nc3ccc(OC)nc3s2)cc1` (stereo unspecified): the melting point lay within 158 to 160 °C.
On to `Cc1nc2nccc(-c3cccs3)n2n1`, for which the melting point is 184 to 185 °C.
The figure for `CCCc1nn(C)c(C(N)=O)c1NC(=O)c1cc([N+](=O)[O-])cnc1OCC` is 251 to 253 °C; for `C=CC(C)Nc1c(-c2c(F)cc(F)cc2F)c(Cl)nc2ncnn12` (stereo unspecified) it is 101 °C.
With `COc1ccc(CN2CCC(c3cn(Cc4ccoc4)c4ncccc34)CC2)cc1C(=O)O` the figure was 230 to 232 °C.
With `CCN1CC(SCC2CC2)(C(F)(F)F)c2cc(Cl)ccc2NC1=O` (stereo unspecified) the figure was 152 to 156 °C; with `CCOC(=O)c1cnc2sc3c(n12)CCCC3`, 75 to 76 °C; with `O=S(=O)(c1ccc(Cl)cc1)N1CCCC1c1cccc(Cl)c1` (racemic), 99 °C.
As to `CCOC(=O)C1=C(N)NC(N)=C(C(=O)OCC)C1c1ccccc1-c1ccccc1`, the melting point worked out at 215 °C.
Turning to `CCCCCCn1c(C)cc(C)c(C#N)c1=O`, the melting point was in the range of 63 to 69 °C.
As for `C[C@@H](NC(=O)c1[nH]c2ccc(Cl)cc2c1S(=O)(=O)c1ccccc1)c1ccccc1`, the melting point came out at 149 °C.
Turning to `Nc1cc(Cl)cc(Cl)c1C(=O)NCc1ccccc1Br`, the melting point fell in the range of 163 to 167 °C.
Compound `CC(=O)OC1=C(c2nnc(C)o2)N(C)S(=O)(=O)c2ccccc21` showed a melting point of 188 to 190 °C.
`O=C(C=Cc1ccccc1)NCc1ccc(C(=O)O)cc1` had a melting point of 238 to 239 °C.

The values are drawn from a melting point compilation (Tetko et al.; mined from patent text by program, amines drawn as free bases though some values may be those of a salt).
